Data as given in PMC11487604, “Selective, Intrinsically Fluorescent Trk Modulating Probes” (ACS Chemical Neuroscience, 2024).
Where two headings read alike, the source gives them in different places. *1 amine or outer side, *2 acyl side, *3 side chain or, on linkers, in order; H or OH if unused. Where a SMILES comes first, the peptide text is derived from it. Bridges are numbered along the chain shown (N, C = ends). X1 = COc1ccc(C2=C3C=C(S(=O)(=O)O)C([*:2])=[N+]3[B-](F)(F)n3c2cc(S(=O)(=O)O)c3[*:1])cc1; X2 = COc1ccc(C2=C3C=C(S(=O)(=O)O)C([*:1])=[N+]3[B-](F)(F)n3c2cc(S(=O)(=O)O)c3[*:2])cc1

Experiments:
[1] = target: T1, TrkB (HEK293-TrkB cells) (Homo sapiens, UniProt Q16620); experiment: Cell-surface fluorescence binding to live HEK293-TrkB cells; conditions: HEK293-TrkB minus HEK293 wild-type fluorescence, 2.5 h
T1 construct: expressed in transfected cells; host or cells: HEK293
Text: Binding of the selective, intrinsically fluorescent mimics to cells can be observed and quantitated via fluorescence. Raw data includes fluorescence associated with material not removed in the washing step (sticky, nonselective binding), and if there were binding to any receptors other than Trk, then fluorescence would be observed for this too. In a second experiment, fluorescence associated with the wild-type cells without Trk expression was similarly recorded to provide a baseline correction representative of that nonselective binding, plus affinity to non-Trk receptors if that occurred. Consequently, fluorescence observed in the noncompetitive experiment minus that in the one using Trk-negative cell lines represents a minimum associated with binding to the expressed Trk receptor. […]
Trk-positive transfected cell lines (HeLa-TrkA, HEK293-TrkB, and NIH3T3-TrkC) and Trk-negative cell lines (HeLa, HEK293, and NIH3T3) were seeded at a density of 2 × 10^3 cells/well in 96-well plates and incubated for 24 h to allow them to adhere. […] Cell associated fluorescence was then determined by measuring emission of the resulting solution on a plate reader (BioTek Synergy H4 Hybrid Reader), λex (540/25 nm) and λem (620/40 nm). […]

[2] = target: TrkB-expressing cells (HEK+B) (UniProt Q16620); experiment: Cell survival assay in serum-free media, TrkB-expressing cells (HEK+B); format: cell-based; conditions: normalized to DMSO (0%) and 1.0 nM BDNF (100%)
Experimental: Loop mimics 5 were screened in cell survival assays to evaluate their efficacy in stimulating Trk receptors (Figure 2). Mimics were assayed for the ability to rescue cells from cell death when incubated in serum-free media (SFM) in the absence of NTs (a test for “agonism”) or in the presence of a suboptimal NT concentration (a test for NT “modulation”). Simultaneously, these assays may confirm test mimics are not cytotoxic at lower doses (though cytotoxicity assays were also performed up to higher doses, Figure S1). […] All the test compounds were screened at 50 μM concentrations initially, and then, dose response curves were measured for the hits (Table 1 and Figure 3).
We were forced to use transfectants in different cell lines (HeLa, HEK-293, NIH-3T3 expressing TrkA, B, and C, respectively) due to difficulties in obtaining transfected cells derived from a single wild type; however, none of the cells used express TrkA-C prior to transfection. Throughout this paper, HeLa cells are denoted as “HeLa”, and their TrkA transfectants are “HeLa+A”. Similarly, HEK-293 cells are “HEK”; their TrkB transfectants are HEK+B. NIH-3T3 cells are “NIH”, and their TrkC transfectants are “NIH+C”.
Cells were seeded at a density of 2 × 10^3 cells/well in complete media in 96-well plates and incubated for 24 h to allow cells to adhere. Cells were washed with DPBS, and then, media were swapped for serum-free media of the same type as the complete media. Cells were then treated with 50 μM compound either alone or in conjunction with suboptimal neurotrophin corresponding to the Trk receptor expressed for 48 h. Cells were washed with DPBS buffer twice and detached from the plate with 50 μL of trypsin for 3 min at 37 °C. Trypsinization was quenched with 100 μL of complete media. Cells were suspended and live cells counted using flow cytometry (CytoFLEX LX). Cell survival was normalized from cell count (CC) readings relative to optimal neurotrophin (NT = 100%) and DMSO (0%) utilizing GraphPad Prism 10.2, followed by statistical analysis via one-way ANOVA and Dunnett’s t test compared to the DMSO control. Dose response versions of this assay were conducted following the same procedure, but the data was analyzed in GraphPad Prism 10.2 using the nonlinear fit: {agonist} vs response – variable slope (four parameters) function.

[3] = system: pAKT in PC12 (TrkA+) cells; experiment: ELFI, pAKT signaling in PC12 cells, competition with NT; format: cell-based, rat; conditions: competed with 10 ng/mL NT, 1 h
Experimental: (§1) Throughout, the positive control was concentration-dependent treatment with the parent NT in half-log dilutions from 100 ng/mL to 0.1 ng/mL, and the negative control was to treat the cells with only DMSO. We first determined Z′ factors[83] based on these boundary controls. Once the assays had been validated (Z′ > 0.5), we determined optimal times to fix cells after treatment (taking into account potential differences in the kinetics of Trk activation between small molecules and neurotrophins), mimicked dose ranges, and then performed dose response studies.
(§2) Assays were conducted as previously reported.[36] Trk-positive cells (PC12, HEK293-TrkB, and NIH3T3-TrkC) were seeded at a density of 2 × 10^4 cells per well in poly-D-lysine (PDL)-coated 96-well white flat-bottomed plates and allowed to adhere for 24 h. Cells were washed once with SFM and then incubated for 1–2 h in SFM. A serial dilution of compound and/or NT was added, and the cells were incubated for 15 min (agonism experiments) or 1 h (antagonism). […] Cells were washed 6× with WB, and then, levels of phosphorylation were quantified using SuperSignal ELISA Pico Chemiluminescent Substrate (Thermo Scientific). […] IC50 is calculated for 5c(ii) using the {inhibitor} vs response – variable slope (four parameters) function in GraphPad Prism 10.2.

[4] = system: primary adult cortical neurons; experiment: Primary adult cortical neuron assay (neurite outgrowth and survival); format: cell-based, mouse
Text: We next decided to test the effects of 5c(ii) on primary mouse adult cortical neurons. These neurons naturally express TrkA[84] and therefore provide a more clinically relevant substrate to test compound leads in than analogous Trk-expressing transfectants. In addition, using neurons extracted from adult mice provide increased relevance to neurodegenerative and other nervous-system related diseases and injury, since most of these primarily occur in adult populations.[85],[86] To determine any potential for preclinical applications, 5c(ii) (5 μM) was incubated with primary cortical neurons from 6-week-old male mice at the time of plating, and neuronal survival and neurite outgrowth were quantified.
Figure 7 5c(ii) promotes neuroprotection. Primary adult cortical neurons were extracted from 6-week-old male mice and plated on 384-well PDL-coated plastic bottom plates at 10,000 cells/well. 5c(ii) at 5 μM concentration was added at the time of plating. 48 h after plating, the cells were fixed to conduct immunocytochemistry. Graph represents the mean ± SEM of (a) total neurite outgrowth per cell and (b) number of valid neurons per well. Representative images of cortical neurons treated with (c) vehicle and (d) 5 μM 5c(ii). Student’s t test. N = 3–5. *p < 0.05.
Cortical neuron assay was conducted as previously described.[85] Briefly, wild-type 6-week-old C57Bl/6 male mice were euthanized using CO2, and the brains were removed. The cortex was isolated and transferred to a MACS C-tube and then dissociated using the Miltenyi gentleMACS octo-dissociator on a preset protocol designed for adult rodent brains. […] Images were quantified using the Neurite Outgrowth Analysis Module in MetaXpress 6 software (Molecular Devices). For quantification, the number of valid neurons is determined by quantifying the number of TUBB3^+/DAPI^+ cells in a well with ≥10 μm of total neurite outgrowth. Total neurite outgrowth is determined by dividing the length of all neurites in a well by the number of valid neurons in that respective well. […]

[5] = system: pMAPK in PC12 (TrkA+) cells; experiment: ELFI, pMAPK signaling in PC12 cells, competition with NT; format: cell-based, rat; conditions: competed with 10 ng/mL NT, 1 h
Experimental: as §1, §2

[6] = system: pAKT in NIH+C cells; experiment: ELFI, pAKT signaling in NIH+C cells, competition with NT; format: cell-based; conditions: competed with 10 ng/mL NT, 1 h
Experimental: as §1, §2

[7] = target: TrkA-expressing cells (HeLa+A) (UniProt P04629); experiment: Cell survival assay in serum-free media, TrkA-expressing cells (HeLa+A); format: cell-based; conditions: Figure 8 summary
Experimental: Cells were seeded at a density of 2 × 10^3 cells/well in complete media in 96-well plates and incubated for 24 h to allow cells to adhere. Cells were washed with DPBS, and then, media were swapped for serum-free media of the same type as the complete media. […] Cells were suspended and live cells counted using flow cytometry (CytoFLEX LX).

[8] = system: pMAPK in NIH+C cells; experiment: ELFI, pMAPK signaling in NIH+C cells, competition with NT; format: cell-based; conditions: competed with 10 ng/mL NT, 1 h
Experimental: as §1, §2

[9] = design: method as in PMID 34451801; conditions: lack of selectivity; cited from earlier work
[10] = system: p75; conditions: cited from earlier work
[11] = system: TrkC; conditions: cited from earlier work

TrkB-expressing cells (HEK+B), sequence (Q16620 32-822): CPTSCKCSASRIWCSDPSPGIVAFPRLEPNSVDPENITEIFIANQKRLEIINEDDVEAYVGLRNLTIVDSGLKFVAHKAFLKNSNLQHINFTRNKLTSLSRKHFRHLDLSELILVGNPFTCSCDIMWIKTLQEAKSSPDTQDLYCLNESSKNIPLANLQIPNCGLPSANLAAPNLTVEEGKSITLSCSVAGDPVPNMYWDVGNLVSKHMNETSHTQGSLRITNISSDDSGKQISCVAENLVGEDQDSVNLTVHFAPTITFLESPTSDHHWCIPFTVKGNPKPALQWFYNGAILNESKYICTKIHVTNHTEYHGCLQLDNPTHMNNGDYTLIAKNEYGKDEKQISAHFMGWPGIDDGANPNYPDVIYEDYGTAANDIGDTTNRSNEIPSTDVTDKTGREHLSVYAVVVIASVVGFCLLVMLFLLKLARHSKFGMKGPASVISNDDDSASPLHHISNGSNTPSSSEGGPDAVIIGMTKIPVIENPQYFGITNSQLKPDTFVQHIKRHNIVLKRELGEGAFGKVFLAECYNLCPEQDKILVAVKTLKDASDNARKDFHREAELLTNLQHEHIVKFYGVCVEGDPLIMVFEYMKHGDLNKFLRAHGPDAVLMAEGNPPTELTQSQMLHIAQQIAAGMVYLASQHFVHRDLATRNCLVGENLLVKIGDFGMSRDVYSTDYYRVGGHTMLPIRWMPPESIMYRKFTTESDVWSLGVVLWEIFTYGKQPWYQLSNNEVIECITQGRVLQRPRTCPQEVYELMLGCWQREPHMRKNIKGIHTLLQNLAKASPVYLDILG
TrkA-expressing cells (HeLa+A), sequence (P04629 33-796): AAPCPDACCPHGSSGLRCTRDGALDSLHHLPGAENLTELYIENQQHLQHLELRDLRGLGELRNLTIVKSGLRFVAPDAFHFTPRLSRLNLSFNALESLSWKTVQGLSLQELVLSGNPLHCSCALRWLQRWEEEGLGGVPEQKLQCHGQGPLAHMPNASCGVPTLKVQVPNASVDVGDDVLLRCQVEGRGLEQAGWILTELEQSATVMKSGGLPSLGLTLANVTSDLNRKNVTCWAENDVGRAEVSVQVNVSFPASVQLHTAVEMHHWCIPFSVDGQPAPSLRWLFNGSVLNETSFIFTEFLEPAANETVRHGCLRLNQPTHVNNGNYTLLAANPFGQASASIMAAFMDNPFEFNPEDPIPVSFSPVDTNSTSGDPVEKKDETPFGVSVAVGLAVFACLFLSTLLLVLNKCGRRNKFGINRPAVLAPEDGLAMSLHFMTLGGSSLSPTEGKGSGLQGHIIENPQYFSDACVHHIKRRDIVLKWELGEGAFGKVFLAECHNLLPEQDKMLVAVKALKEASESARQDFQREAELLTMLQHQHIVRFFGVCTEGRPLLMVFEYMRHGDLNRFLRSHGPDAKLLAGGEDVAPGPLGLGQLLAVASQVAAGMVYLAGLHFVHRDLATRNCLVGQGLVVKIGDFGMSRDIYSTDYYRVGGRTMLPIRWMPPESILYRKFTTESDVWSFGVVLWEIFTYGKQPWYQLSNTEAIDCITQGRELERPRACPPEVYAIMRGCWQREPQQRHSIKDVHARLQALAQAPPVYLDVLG

COc1ccc(C2=C3C=C(S(=O)(=O)O)C4=[N+]3[B-](F)(F)n3c2cc(S(=O)(=O)O)c3SC[C@@H](C(N)=O)NC(=O)CNC(=O)[C@H](CO)NC(=O)[C@H](CCSC)NC(=O)[C@H](CC(=O)O)NC(=O)[C@@H](NC(C)=O)CS4)cc1 [5b(i)] (Ac-CDMSGC-NH2; linker 1-6 via X2) gave a Kd [1] of 73 ± 13 nM, an EC50 ([2]; cell survival with 0.6 nM BDNF, read-out: EC50 (μM) with suboptimal neurotrophin) of 1.8 µM and an EC50 ([2]; dose-dependent cell survival without NT, read-out: EC50) of 0.4 µM.
With COc1ccc(C2=C3C=C(S(=O)(=O)O)C4=[N+]3[B-](F)(F)n3c2cc(S(=O)(=O)O)c3SC[C@H](NC(C)=O)C(=O)N[C@@H]([C@@H](C)O)C(=O)N[C@@H](CCC(N)=O)C(=O)N[C@@H](CC(N)=O)C(=O)N[C@@H](CO)C(=O)N[C@H](C(N)=O)CS4)cc1 [5c(ii)] (Ac-CTQNSC-NH2; linker 1-6 via X1; N-terminus and C-terminus assumed) the IC50 [3] was 7 µM, the “change in neurite outgrowth” value ([4]; 5 μM, 48 h, neurons from 6-week-old male mice) was “no significant change” and the “increase in the number of valid neurons” value ([4]; 5 μM, after 48 h, neurons from 6-week-old male mice, vs vehicle) was “over 50%”. The IC50 [5] was 7 µM, the IC50 [6] was 7 µM and the “result (Trk activity assigned)” value [7] was “TrkA modulator”. For the same molecule, the IC50 [8] was 35 µM.
In the case of O=c1cc(-c2ccccc2)oc2c(O)c(O)ccc12 [7,8-DHF, 7,8-Dihydroxyflavone], the “number of targets bound” value [9] is given as 133.
For NCCCC[C@@H]1NC(=O)[C@H](CCC(=O)O)NC(=O)c2cc([N+](=O)[O-])ccc2OCC[C@@H](C(=O)NCC(=O)O)NC1=O [D3], the “effect in primary adult cortical neuron assay” value ([4]; data not shown) is given as “no measurable effect”, the “binding to p75” value [10] is given as “does not bind” and the “binding to TrkC” value [11] is given as “does not bind”.
